# Source: a polymer gas permeability compilation
SMILES,CH4 permeability [Barrer],CO2 permeability [Barrer],H2 permeability [Barrer],N2 permeability [Barrer],O2 permeability [Barrer]
*/C(C)=C(/*)[Si](C)(C)C(C)C (repeat unit),360,2200,1650,170,460
*Nc1ccc(Oc2ccc(Oc3ccc(NC(=O)CN4C(=O)c5ccc(C(*)=O)cc5C4=O)cc3)cc2)cc1 (repeat unit),0.015,0.749,,0.02,0.185
*OC1OC(COC(=O)NC(C)(C)C)C(*)C(OC(C)=O)C1OC(C)=O (repeat unit),1.4,28.5,31,0.98,4.3
*OC1OC(COCC)C(*)C(OCC)C1OCC (repeat unit),9.2,91,68,4.3,15
*OCC(*)CCl (repeat unit),0.657,8,,0.24,
*OCC1OC(COCC)C(*)C(OCC)C1OCC (repeat unit),6.1,67.7,54.4,3.18,11.9
*OCCCCCC(*)=O (repeat unit),1.57,16.8,5.06,0.59,1.32
*O[Si](*)(C)CCC(F)(F)F (repeat unit),201,1390,,88.3,200
*O[Si](C)(C)CCCCCCCC[Si](*)(C)C (repeat unit),360,1200,,,237
*O[Si](C)(C)CCCCCC[Si](*)(C)C (repeat unit),395,1310,,,265
*Oc1c(Br)cc(C(c2cc(Br)c(OC(*)=O)c(Br)c2)(C(F)(F)F)C(F)(F)F)cc1Br (repeat unit),0.89,32,10.6,1.8,9.7
*Oc1c(C)cc(*)c([N+](=O)[O-])c1C (repeat unit),2.4,40.4,,2.4,11.5
*Oc1c(C)cc(*)cc1C (repeat unit),4.1,66,68.7,3.5,14.6
*Oc1cc2c(cc1O*)C(=O)N(c1c(C)c(C)c(-n3c(=O)c4cc5oc6cc7c(cc6oc5cc4c3=O)C3(C(C)C)c4ccccc4C7(C(C)C)c4cc(*)c(*)cc43)c(C)c1C)C2=O (repeat unit),83.7,,3430,87.4,542
*Oc1cc2c(cc1O*)C(C)(C)CC1(CC(C)(C)c3cc4c(cc3O1)Oc1c(C#N)c(*)c(*)c(C#N)c1O4)O2 (repeat unit),93,1540,750,61.5,212
*Oc1cc2c(cc1O*)C1(CC2(C)C)CC(C)(C)c2cc3oc4cc5c(=O)n(-c6c(C)c(C)c(N7C(=O)c8cc(*)c(*)cc8C7=O)c(C)c6C)c(=O)c5cc4oc3cc21 (repeat unit),27,520,360,23,85
*Oc1cc2c(cc1O*)C1(CC2(C)CC)c2cc3c(cc2C(C)(CC)C1C)Oc1c(C#N)c(*)c(*)c(C#N)c1O3 (repeat unit),580,6100,2100,320,820
*Oc1cc2c(cc1O*)C1(c3cc(C)ccc3-2)c2cc(C)ccc2-c2cc3c(cc21)Oc1c(C#N)c(*)c(*)c(C#N)c1O3 (repeat unit),582,8500,4430,380,1510
*Oc1cc2c(cc1O*)C1(c3ccccc3-2)c2ccccc2-c2cc3c(cc21)Oc1c(C#N)c(*)c(*)c(C#N)c1O3 (repeat unit),622,8890,4520,442,1620
*Oc1ccc(-c2c(-c3ccc(C#N)cc3)c(-c3ccc(C#N)cc3)c(-c3ccc4c(c3)Oc3c(C#N)c(*)c(*)c(C#N)c3O4)c(-c3ccc(C#N)cc3)c2-c2ccc(C#N)cc2)cc1O* (repeat unit),93,1300,734,52,205
*Oc1ccc(-c2c(-c3ccc(C)cc3)c(-c3ccc(C)cc3)c(-c3ccc4c(c3)Oc3c(C#N)c(*)c(*)c(C#N)c3O4)c(-c3ccc(C)cc3)c2-c2ccc(C)cc2)cc1O* (repeat unit),132,1630,856,60,256
*Oc1ccc(-c2ccc(Oc3c(F)c(F)c(COC(C4CCCC(C(OCc5c(F)c(F)c(*)c(F)c5F)(C(F)(F)F)C(F)(F)F)C4)(C(F)(F)F)C(F)(F)F)c(F)c3F)cc2)cc1 (repeat unit),0.34,8.2,20,0.61,2.5

# Further lines, results first:
CH4 permeability [Barrer],CO2 permeability [Barrer],H2 permeability [Barrer],N2 permeability [Barrer],O2 permeability [Barrer],SMILES
190,1220,455,70.5,195,*C(=C(*)c1ccc(-c2ccc(C(C)(C)C)cc2)cc1)c1ccccc1 (repeat unit)
450,2200,810,160,390,*C(=C(*)c1ccc(-c2ccc([Si](C)(C)C)cc2)cc1)c1ccccc1 (repeat unit)
120,640,420,44,140,*C(=C(*)c1ccc(C[Si](C)(C)C)cc1)c1ccccc1 (repeat unit)
0.11,3.2,7.6,0.13,0.75,*Nc1ccc(S(=O)(=O)c2ccc(NC(=O)c3cc(C(*)=O)cc(-c4ccccc4)c3)cc2)cc1 (repeat unit)
0.123,4.21,43,0.191,1.43,*OC(=O)Oc1c(Br)cc(C(C)(C)c2cc(Br)c(*)c(Br)c2)cc1Br (repeat unit)
0.223,6.68,,0.36,2.29,*OC(=O)Oc1c(Cl)cc(C(C)(C)c2cc(Cl)c(*)c(Cl)c2)cc1Cl (repeat unit)
0.53,24,,0.68,3.5,*OC(=O)c1cccc(C(=O)Oc2c(C)cc(C(C)(C)c3cc(C)c(O*)c(C)c3)cc2C)c1 (repeat unit)
0.044,2.5,,0.076,0.46,*OC(=O)c1cccc(C(=O)Oc2ccc(C(C)(C)c3ccc(O*)c(C)c3)cc2C)c1 (repeat unit)
0.853,21.5,54,0.89,5.63,*Oc1c(Br)cc(C(C)(C)c2cc(Br)c(OC(=O)c3cc(C(*)=O)cc(C(C)(C)C)c3)c(Br)c2)cc1Br (repeat unit)
1.13,18,,2.13,8.45,*Oc1c(C)cc(*)c(C(=O)c2ccc(Br)cc2)c1C (repeat unit)
0.98,16.8,,1.8,8.6,*Oc1c(C)cc(*)c(C(=O)c2ccc(Cl)cc2)c1C (repeat unit)
1.06,22.7,,1.06,6.27,*Oc1c(C)cc(C(C)(C)c2cc(C)c(OC(=O)c3cc(C(*)=O)cc(C(C)(C)C)c3)c(Br)c2)cc1Br (repeat unit)
0.472,12,38.6,0.579,3.26,*Oc1c(C)cc(C(C)(C)c2cc(C)c(OC(=O)c3cccc(C(*)=O)c3)c(C)c2)cc1C (repeat unit)
1.1,20,52,1.1,5.6,*Oc1c(C)cc(C(C)(C)c2cc(C)c(Oc3ccc(C(=O)c4ccc(*)cc4)cc3)c(C)c2)cc1C (repeat unit)
0.28,7,20,0.281,1.8,*Oc1c(C)cc(C(C)(C)c2cccc(C(C)(C)c3cc(C)c(Oc4ccc(S(=O)(=O)c5ccc(*)cc5)cc4)c(C)c3)c2)cc1C (repeat unit)
3,72,,4,18,*Oc1c(C)cc(C(c2cc(C)c(Oc3ccc(S(=O)(=O)c4ccc(*)cc4)cc3)c(C)c2)(C(F)(F)F)C(F)(F)F)cc1C (repeat unit)
0.225,7.69,16.9,0.21,1.55,*Oc1cc(C)c(C2(c3cc(C)c(Oc4ccc(S(=O)(=O)c5ccc(*)cc5)cc4)cc3C)OC(=O)c3ccccc32)cc1C (repeat unit)
1700,13200,5150,815,2310,*Oc1cc2c(cc1O*)C1(c3cc(C(C)(C)C)ccc3-2)c2cc(C(C)(C)C)ccc2-c2cc3c(cc21)Oc1c(C#N)c(*)c(*)c(C#N)c1O3 (repeat unit)
563,7880,4420,341,1390,*Oc1cc2c(cc1O*)C1(c3ccccc3-c3cc4c(cc31)Oc1c(C#N)c(*)c(*)c(C#N)c1O4)c1cc(C)c(C)cc1-2 (repeat unit)
